# Experimental data: the supplement of paper PMC10307832
# Compound: COC1=C(C=C(C=C1)C2=CC3=NC=CN3C(=N2)NC4=C(C=CC=N4)C(=O)N)OC [BAY61-3606] + COc1cc2c(Oc3ccc(NC(=O)C4(C(=O)Nc5ccc(F)cc5)CC4)cc3F)ccnc2cc1OCCCN1CCOCC1 [Foretinib] (partner 0.25 µM)
# Assay: relative viability (nuclei count vs DMSO), 5 days (fraction); higher = more cells survive
# Settings: first compound 2 µM
# In short: (§1)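 Five library-drug doses in √10 steps were combined with a fixed anchor-drug dose, or a single drug was given alone, by pin tool to lung cancer cell lines in 1536-well plates the day after seeding. Nuclei were stained and counted after 5 days. Relative viability is the nuclei count in treated wells over that in vehicle wells, taken as the median of duplicate plates.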
row,Cell Line,relative viability
1,PC-14,0.931
2,HCC-366,0.893

# Compound: COc1cccc2c1C(=O)c1c(O)c3c(c(O)c1C2=O)C[C@@](O)(C(=O)CO)C[C@@H]3O[C@H]1C[C@H](N)[C@H](O)[C@H](C)O1 [Doxorubicin] + Cc1nc(NC(=O)N2CCC[C@H]2C(N)=O)sc1-c1ccnc(C(C)(C)C(F)(F)F)c1 [Alpelisib] (partner 2 µM)
# Assay: as above
# Settings: first compound 0.001 µM
# In short: as §1
row,Cell Line,relative viability
1,NCI-H1395,0.964
2,201T,1.02
3,NCI-H1975,0.64
4,HOP-62,0.873
5,NCI-H1355,0.868
6,NCI-H838,1
7,CAL-12T,1.23
8,NCI-H1666,0.938
9,EPLC-272H,0.898
10,NCI-H2347,0.985
11,NCI-H1915,0.98
12,NCI-H1437,1.03
13,NCI-H460,0.584
14,NCI-H2085,0.936
15,HCC-15,0.85
16,NCI-H1944,0.8
17,EKVX,0.968
18,LCLC-103H,0.917
19,NCI-H2170,0.896
20,NCI-H1993,0.677
21,ABC-1,1.04
22,PC-14,0.892

# Same assay, conditions: first compound 0.003162 µM
row,Cell Line,relative viability
1,NCI-H1395,0.985
2,201T,0.969
3,NCI-H1975,0.597
4,HOP-62,1.26
5,NCI-H2405,0.728
6,NCI-H1355,0.96
7,NCI-H838,1.05
8,CAL-12T,1.41
9,NCI-H1666,0.814
10,EPLC-272H,1.04
11,NCI-H2347,0.935
12,NCI-H1915,1.05
13,NCI-H1437,1
14,NCI-H460,0.386
15,NCI-H2085,1
16,HCC-15,0.939
17,NCI-H1944,0.836
18,EKVX,0.971
19,LCLC-103H,0.993
20,NCI-H2170,0.966
21,NCI-H1993,0.627
22,NCI-H23,0.716
23,ABC-1,0.922
24,PC-14,1.01
25,HCC-366,0.348

# Same assay, conditions: first compound 0.01 µM
row,Cell Line,relative viability
1,NCI-H1395,0.98
2,201T,0.985
3,NCI-H1975,0.625
4,HOP-62,1.15
5,NCI-H2405,0.82
6,NCI-H1355,0.889
7,NCI-H838,0.979
8,CAL-12T,0.587
9,NCI-H1666,0.551
10,EPLC-272H,0.913
11,NCI-H2347,0.997
12,NCI-H1915,1.1
13,NCI-H1437,0.94
14,NCI-H460,0.288
15,NCI-H2085,0.992
16,HCC-15,0.633
17,NCI-H1944,0.851
18,EKVX,0.797
19,LCLC-103H,0.981
20,NCI-H2170,0.727
21,NCI-H1993,0.696
22,NCI-H23,0.555
23,ABC-1,1.02
24,PC-14,0.963
25,HCC-366,0.439

# Same assay, conditions: first compound 0.03162 µM
row,Cell Line,relative viability
1,NCI-H1395,0.851
2,201T,0.969
3,NCI-H1975,0.334
4,HOP-62,0.879
5,NCI-H2405,0.663
6,NCI-H1355,0.839
7,NCI-H838,0.919
8,CAL-12T,0.26
9,NCI-H1666,0.27
10,EPLC-272H,0.902
11,NCI-H2347,0.899
12,NCI-H1915,1.05
13,NCI-H1437,0.611
14,NCI-H460,0.024
15,NCI-H2085,0.739
16,HCC-15,0.727
17,NCI-H1944,0.83
18,EKVX,0.803
19,LCLC-103H,1.06
20,NCI-H2170,0.682
21,NCI-H1993,0.627
22,NCI-H23,0.517
23,ABC-1,0.504
24,PC-14,0.986
25,HCC-366,0.369

# Same assay, conditions: first compound 0.1 µM
row,Cell Line,relative viability
1,NCI-H1395,0.791
2,201T,1.02
3,NCI-H1975,0.232
4,HOP-62,0.934
5,NCI-H2405,0.406
6,NCI-H1355,0.823
7,NCI-H838,0.461
8,CAL-12T,0.142
9,NCI-H1666,0.284
10,EPLC-272H,1.02
11,NCI-H2347,1.02
12,NCI-H1915,1.12
13,NCI-H1437,0.257
14,NCI-H460,0.0112
15,NCI-H2085,0.686
16,HCC-15,0.573
17,NCI-H1944,0.885
18,EKVX,0.861
19,LCLC-103H,1.08
20,NCI-H2170,0.877
21,NCI-H1993,0.619
22,NCI-H23,0.662
23,ABC-1,0.361
24,PC-14,1.01
25,HCC-366,0.367

# Compound: COC1=C(C=C(C=C1)C2=CC3=NC=CN3C(=N2)NC4=C(C=CC=N4)C(=O)N)OC [BAY61-3606] + NC(=O)Nc1cc(-c2cccc(F)c2)sc1C(=O)N[C@H]1CCCNC1 [AZD7762] (partner 0.2 µM)
# Assay: as above
# Settings: first compound 0.02 µM
# In short: as §1
row,Cell Line,relative viability
1,NCI-H1395,0.393
2,201T,0.592
3,NCI-H1975,0.706
4,NCI-H2405,0.832
5,NCI-H1355,0.833
6,NCI-H838,1.06
7,CAL-12T,0.693
8,NCI-H1666,0.917
9,EPLC-272H,0.223
10,NCI-H2347,0.801
11,NCI-H1915,0.658
12,NCI-H1437,1.14
13,NCI-H460,0.63
14,NCI-H2085,1.01
15,HCC-15,1.31
16,NCI-H1944,0.477
17,EKVX,0.742
18,LCLC-103H,0.762
19,NCI-H2170,0.895
20,NCI-H1993,0.823
21,NCI-H23,0.227
22,ABC-1,0.644
23,PC-14,0.418
24,HCC-366,0.286

# Same assay, conditions: first compound 0.06325 µM
row,Cell Line,relative viability
1,NCI-H1395,0.411
2,201T,0.759
3,NCI-H1975,0.603
4,HOP-62,0.643
5,NCI-H2405,0.658
6,NCI-H1355,0.531
7,NCI-H838,0.847
8,CAL-12T,0.577
9,NCI-H1666,0.895
10,EPLC-272H,0.193
11,NCI-H2347,0.701
12,NCI-H1915,0.708
13,NCI-H1437,1.08
14,NCI-H460,0.646
15,NCI-H2085,1.08
16,HCC-15,0.919
17,NCI-H1944,0.533
18,EKVX,0.673
19,LCLC-103H,0.704
20,NCI-H2170,0.913
21,NCI-H1993,0.824
22,NCI-H23,0.192
23,ABC-1,0.793
24,PC-14,0.268
25,HCC-366,0.222

# Same assay, conditions: first compound 0.2 µM
row,Cell Line,relative viability
1,NCI-H1395,0.424
2,201T,0.752
3,NCI-H1975,0.621
4,HOP-62,0.517
5,NCI-H2405,0.748
6,NCI-H1355,0.679
7,NCI-H838,0.954
8,CAL-12T,0.677
9,NCI-H1666,0.852
10,EPLC-272H,0.313
11,NCI-H2347,0.73
12,NCI-H1915,0.641
13,NCI-H1437,1.17
14,NCI-H460,0.739
15,NCI-H2085,0.969
16,HCC-15,1.29
17,NCI-H1944,0.635
18,EKVX,0.644
19,LCLC-103H,0.836
20,NCI-H2170,0.885
21,NCI-H1993,0.614
22,NCI-H23,0.251
23,ABC-1,0.716
24,PC-14,0.35
25,HCC-366,0.282

# Same assay, conditions: first compound 0.6325 µM
row,Cell Line,relative viability
1,NCI-H1395,0.42
2,201T,0.661
3,NCI-H1975,0.654
4,HOP-62,0.748
5,NCI-H2405,0.658
6,NCI-H1355,0.749
7,NCI-H838,0.908
8,CAL-12T,0.634
9,NCI-H1666,0.834
10,EPLC-272H,0.186
11,NCI-H2347,0.67
12,NCI-H1915,0.659
13,NCI-H1437,1.21
14,NCI-H460,0.631
15,NCI-H2085,1.1
16,HCC-15,1.25
17,NCI-H1944,0.592
18,EKVX,0.753
19,LCLC-103H,0.758
20,NCI-H2170,0.85
21,NCI-H1993,0.869
22,NCI-H23,0.265
23,ABC-1,0.701
24,PC-14,0.32
25,HCC-366,0.265

# Same assay, conditions: first compound 2 µM
row,Cell Line,relative viability
1,NCI-H1395,0.393
2,201T,0.688
3,NCI-H1975,0.348
4,HOP-62,0.531
5,NCI-H2405,0.496
6,NCI-H1355,0.529
7,NCI-H838,0.895
8,CAL-12T,0.71
9,NCI-H1666,0.82
10,EPLC-272H,0.173
11,NCI-H2347,0.709
12,NCI-H1915,0.66
13,NCI-H1437,1.12
14,NCI-H460,0.766
15,NCI-H2085,0.942
16,HCC-15,1.16
17,NCI-H1944,0.485
18,EKVX,0.665
19,LCLC-103H,0.769
20,NCI-H2170,0.585
21,NCI-H1993,0.739
22,NCI-H23,0.224
23,ABC-1,0.873
24,PC-14,0.342
25,HCC-366,0.283
